Results: ChEMBL document CHEMBL4392844 (Bioorg Med Chem, 2019)
Calls of active or inactive are those of the source. The calls are words filed in the database; no cut-off is given here.

Legend:
HT-29 [1] = assay: Cytotoxicity against human HT-29 cells assessed as reduction in cell proliferation measured after 72 hrs by MTT assay; type: functional, cell-based; conditions: HT-29, 72 h
A549 = assay: Cytotoxicity against human A549 cells assessed as reduction in cell proliferation measured after 72 hrs by MTT assay; type: functional, cell-based; conditions: A549, 72 h
[2] = target: Vascular endothelial growth factor receptor 2 (Homo sapiens, UniProt P35968); assay: Inhibition of VEGFR2 (unknown origin) using FAM-labelled peptide as substrate measured after 10 mins by mobility shift assay
HT-29 [3] = assay: Antimigratory activity against human HT-29 cells assessed as reduction in cell migration at 3.33 ug/ml measured every hour for 72 hrs by IncuCyte real-time cell imaging analysis; type: functional, cell-based
HT-29 [4] = assay: Induction of apoptosis in human HT-29 cells assessed as early apoptotic cells at 0.3 ug/ml measured after 24 hrs by Annexin V-FITC/propidium iodide staining based FACS analysis (reference value: 4.9%); type: functional
[5] = target: Epidermal growth factor receptor (Homo sapiens, UniProt P00533); assay: Inhibition of EGFR (unknown origin) using FAM-labelled peptide as substrate measured after 10 mins by mobility shift assay
Chain of Epidermal growth factor receptor (P00533 whole entry): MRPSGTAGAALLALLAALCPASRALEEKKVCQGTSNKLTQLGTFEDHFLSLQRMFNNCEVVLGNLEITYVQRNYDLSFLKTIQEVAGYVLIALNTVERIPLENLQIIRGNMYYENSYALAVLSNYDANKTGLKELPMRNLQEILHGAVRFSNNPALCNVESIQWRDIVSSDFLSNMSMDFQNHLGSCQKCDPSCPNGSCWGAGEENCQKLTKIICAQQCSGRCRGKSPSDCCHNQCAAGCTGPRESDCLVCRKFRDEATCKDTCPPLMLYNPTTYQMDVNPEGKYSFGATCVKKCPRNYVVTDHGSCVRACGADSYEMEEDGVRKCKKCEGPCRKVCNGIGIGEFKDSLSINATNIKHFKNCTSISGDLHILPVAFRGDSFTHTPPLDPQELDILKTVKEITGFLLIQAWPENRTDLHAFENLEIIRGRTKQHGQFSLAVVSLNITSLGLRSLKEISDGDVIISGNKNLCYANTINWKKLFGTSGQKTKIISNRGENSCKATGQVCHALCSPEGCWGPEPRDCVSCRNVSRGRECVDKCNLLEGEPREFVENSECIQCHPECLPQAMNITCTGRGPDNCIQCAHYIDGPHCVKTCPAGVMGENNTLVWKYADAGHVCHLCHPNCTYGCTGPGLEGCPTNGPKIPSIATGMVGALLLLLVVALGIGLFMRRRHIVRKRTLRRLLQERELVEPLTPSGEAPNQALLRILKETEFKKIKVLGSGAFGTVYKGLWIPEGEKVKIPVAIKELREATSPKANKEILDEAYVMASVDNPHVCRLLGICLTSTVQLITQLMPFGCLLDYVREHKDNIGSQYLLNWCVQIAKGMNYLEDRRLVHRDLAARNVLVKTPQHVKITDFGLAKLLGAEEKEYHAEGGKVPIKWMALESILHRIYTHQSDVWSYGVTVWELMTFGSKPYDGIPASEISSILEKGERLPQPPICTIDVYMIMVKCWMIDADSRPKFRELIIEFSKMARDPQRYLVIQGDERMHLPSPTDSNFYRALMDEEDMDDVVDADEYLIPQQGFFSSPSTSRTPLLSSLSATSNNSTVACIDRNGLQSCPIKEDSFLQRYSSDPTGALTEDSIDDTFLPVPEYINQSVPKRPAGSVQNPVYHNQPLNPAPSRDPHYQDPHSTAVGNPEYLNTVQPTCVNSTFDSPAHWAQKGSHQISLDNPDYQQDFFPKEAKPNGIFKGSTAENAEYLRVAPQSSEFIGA

HT-29 [6] = assay: Ratio of test compound effect to cabozantinib effect for antiproliferative activity against human HT-29 cells assessed as increase in dead cell population measured after 14 hrs by IncuCyte live-cell imaging analysis; type: functional
HT-29 [7] = assay: Antiproliferative activity against human HT-29 cells assessed as reduction in cell proliferation by IncuCyte live-cell imaging analysis; type: functional, cell-based
HT-29 [8] = assay: Antiproliferative activity against human HT-29 cells assessed as increase in dead cell population at 1.11 ug/ml measured after 66 hrs by IncuCyte live-cell imaging analysis; type: functional, cell-based
[9] = target: Insulin-like growth factor 1 receptor (Homo sapiens, UniProt P08069); assay: Inhibition of IGF1R (unknown origin) using FAM-labelled peptide as substrate measured after 10 mins by mobility shift assay
Chain of Insulin-like growth factor 1 receptor (P08069 31-736 limits assumed): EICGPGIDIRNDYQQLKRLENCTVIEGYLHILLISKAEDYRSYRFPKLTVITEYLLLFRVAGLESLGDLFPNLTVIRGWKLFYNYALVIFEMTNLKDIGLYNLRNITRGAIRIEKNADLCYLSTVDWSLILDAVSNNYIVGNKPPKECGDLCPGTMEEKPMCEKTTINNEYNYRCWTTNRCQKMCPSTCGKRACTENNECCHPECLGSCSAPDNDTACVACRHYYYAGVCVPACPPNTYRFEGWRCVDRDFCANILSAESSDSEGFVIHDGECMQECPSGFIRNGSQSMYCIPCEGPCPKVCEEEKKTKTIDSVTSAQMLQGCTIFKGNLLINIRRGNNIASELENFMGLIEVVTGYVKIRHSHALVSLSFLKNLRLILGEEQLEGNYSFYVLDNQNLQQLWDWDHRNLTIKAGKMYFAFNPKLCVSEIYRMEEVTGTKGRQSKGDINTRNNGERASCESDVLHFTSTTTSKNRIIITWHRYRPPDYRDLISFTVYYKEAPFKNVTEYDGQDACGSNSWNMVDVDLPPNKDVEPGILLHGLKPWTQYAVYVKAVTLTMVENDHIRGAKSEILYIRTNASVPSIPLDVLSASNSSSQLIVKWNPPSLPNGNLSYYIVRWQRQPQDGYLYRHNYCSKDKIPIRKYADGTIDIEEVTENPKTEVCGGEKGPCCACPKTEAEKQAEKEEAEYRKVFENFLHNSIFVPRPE
Chain of Insulin-like growth factor 1 receptor (P08069 741-1367 limits assumed): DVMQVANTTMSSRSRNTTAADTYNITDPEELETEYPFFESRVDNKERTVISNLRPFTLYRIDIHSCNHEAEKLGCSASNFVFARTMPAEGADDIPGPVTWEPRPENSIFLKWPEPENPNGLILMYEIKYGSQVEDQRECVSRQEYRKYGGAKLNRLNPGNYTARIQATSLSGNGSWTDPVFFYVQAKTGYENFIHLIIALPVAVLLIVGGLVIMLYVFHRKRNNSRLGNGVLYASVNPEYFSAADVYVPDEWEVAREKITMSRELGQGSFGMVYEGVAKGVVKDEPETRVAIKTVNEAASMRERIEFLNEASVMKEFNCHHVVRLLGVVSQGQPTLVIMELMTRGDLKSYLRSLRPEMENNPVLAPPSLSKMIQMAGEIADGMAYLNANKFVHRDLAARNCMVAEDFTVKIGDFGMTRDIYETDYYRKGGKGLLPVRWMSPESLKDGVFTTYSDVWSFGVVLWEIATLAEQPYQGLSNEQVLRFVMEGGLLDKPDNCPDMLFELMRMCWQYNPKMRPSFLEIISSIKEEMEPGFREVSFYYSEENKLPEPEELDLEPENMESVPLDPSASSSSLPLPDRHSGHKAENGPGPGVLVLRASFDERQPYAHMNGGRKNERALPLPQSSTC

HT-29 [10] = assay: Antiproliferative activity against human HT-29 cells assessed as reduction in cell proliferation at 10 ug/ml after 72 hrs by phase contrast microscopy; type: functional, cell-based
HT-29 [11] = assay: Antiproliferative activity against human HT-29 cells assessed as reduction in cell proliferation by phase contrast microscopy; type: functional, cell-based
[12] = target: Mast/stem cell growth factor receptor Kit (Homo sapiens, UniProt P10721); assay: Inhibition of c-KIT (unknown origin) using FAM-labelled peptide as substrate measured after 10 mins by mobility shift assay
Chain of Mast/stem cell growth factor receptor Kit (P10721 whole entry): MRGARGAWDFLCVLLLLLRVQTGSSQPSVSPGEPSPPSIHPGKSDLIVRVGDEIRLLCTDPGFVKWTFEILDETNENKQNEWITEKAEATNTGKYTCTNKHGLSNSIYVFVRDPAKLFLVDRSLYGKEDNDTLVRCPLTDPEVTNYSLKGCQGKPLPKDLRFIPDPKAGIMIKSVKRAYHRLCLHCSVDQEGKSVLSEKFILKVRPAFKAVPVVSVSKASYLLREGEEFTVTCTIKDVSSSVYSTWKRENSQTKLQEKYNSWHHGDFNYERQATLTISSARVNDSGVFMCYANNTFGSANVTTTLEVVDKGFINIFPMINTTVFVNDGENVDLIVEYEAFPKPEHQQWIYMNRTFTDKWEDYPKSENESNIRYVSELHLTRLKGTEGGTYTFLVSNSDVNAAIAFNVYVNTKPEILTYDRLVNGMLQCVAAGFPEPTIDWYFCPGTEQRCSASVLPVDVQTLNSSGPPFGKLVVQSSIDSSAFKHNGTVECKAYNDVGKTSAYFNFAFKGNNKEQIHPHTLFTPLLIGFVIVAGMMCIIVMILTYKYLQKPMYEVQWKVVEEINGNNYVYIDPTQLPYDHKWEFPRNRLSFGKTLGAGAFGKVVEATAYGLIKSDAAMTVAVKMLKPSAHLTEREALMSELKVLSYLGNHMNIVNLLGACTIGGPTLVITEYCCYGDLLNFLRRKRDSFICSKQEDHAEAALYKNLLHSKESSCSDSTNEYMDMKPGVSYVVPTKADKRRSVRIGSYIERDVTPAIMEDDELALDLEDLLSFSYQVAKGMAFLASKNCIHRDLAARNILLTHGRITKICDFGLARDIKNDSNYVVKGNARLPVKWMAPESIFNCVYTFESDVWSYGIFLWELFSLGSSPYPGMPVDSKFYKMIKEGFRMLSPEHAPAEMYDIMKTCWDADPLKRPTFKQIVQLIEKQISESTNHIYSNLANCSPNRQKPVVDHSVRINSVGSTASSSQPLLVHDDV

HT-29 [13] = assay: Induction of apoptosis in human HT-29 cells assessed as early apoptotic cells at 1 ug/ml measured after 24 hrs by Annexin V-FITC/propidium iodide staining based FACS analysis (reference value: 4.9%); type: functional
[14] = target: Proto-oncogene tyrosine-protein kinase Src (Homo sapiens, UniProt P12931); assay: Inhibition of c-SRC (unknown origin) using FAM-labelled peptide as substrate measured after 10 mins by mobility shift assay
Chain of Proto-oncogene tyrosine-protein kinase Src (P12931 2-536 limits assumed): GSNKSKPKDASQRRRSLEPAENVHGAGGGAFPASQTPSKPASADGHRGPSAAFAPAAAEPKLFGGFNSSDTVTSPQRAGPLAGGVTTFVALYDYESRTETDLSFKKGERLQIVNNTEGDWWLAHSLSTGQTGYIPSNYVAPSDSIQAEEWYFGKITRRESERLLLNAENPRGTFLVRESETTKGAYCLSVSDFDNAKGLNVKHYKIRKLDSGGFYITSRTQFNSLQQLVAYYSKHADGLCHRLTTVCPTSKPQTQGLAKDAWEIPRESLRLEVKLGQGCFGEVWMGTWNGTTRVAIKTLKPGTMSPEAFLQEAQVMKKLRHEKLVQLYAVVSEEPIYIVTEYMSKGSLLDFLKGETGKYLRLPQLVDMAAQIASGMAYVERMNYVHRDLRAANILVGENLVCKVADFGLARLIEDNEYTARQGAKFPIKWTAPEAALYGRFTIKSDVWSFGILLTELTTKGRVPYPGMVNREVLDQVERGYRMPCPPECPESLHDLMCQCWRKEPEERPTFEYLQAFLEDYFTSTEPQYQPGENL

HT-29 [15] = assay: Induction of apoptosis in human HT-29 cells measured after 72 hrs by Annexin V-FITC/propidium iodide staining based FACS analysis; type: functional, cell-based
HT-29 [16] = assay: Antimigratory activity against human HT-29 cells assessed as reduction in cell migration at 3.33 ug/ml measured every hour for 48 hrs by IncuCyte real-time cell imaging analysis; type: functional, cell-based
HT-29 [17] = assay: Induction of apoptosis in human HT-29 cells assessed as early apoptotic cells at 5 ug/ml measured after 24 hrs by Annexin V-FITC/propidium iodide staining based FACS analysis (reference value: 4.9%); type: functional
HT-29 [18] = assay: Antiproliferative activity against human HT-29 cells assessed as increase in dead cell population at 10 ug/ml measured after 14 hrs by IncuCyte live-cell imaging analysis; type: functional, cell-based
HT-29 [19] = assay: Induction of apoptosis in human HT-29 cells assessed as early apoptotic cells at 3 ug/ml measured after 24 hrs by Annexin V-FITC/propidium iodide staining based FACS analysis (reference value: 4.9%); type: functional
[20] = target: T1, Receptor-type tyrosine-protein kinase FLT3 (Homo sapiens, UniProt P36888); assay: Inhibition of FLT3 (unknown origin) using FAM-labelled peptide as substrate measured after 10 mins by mobility shift assay
T1 sequence (P36888 whole entry): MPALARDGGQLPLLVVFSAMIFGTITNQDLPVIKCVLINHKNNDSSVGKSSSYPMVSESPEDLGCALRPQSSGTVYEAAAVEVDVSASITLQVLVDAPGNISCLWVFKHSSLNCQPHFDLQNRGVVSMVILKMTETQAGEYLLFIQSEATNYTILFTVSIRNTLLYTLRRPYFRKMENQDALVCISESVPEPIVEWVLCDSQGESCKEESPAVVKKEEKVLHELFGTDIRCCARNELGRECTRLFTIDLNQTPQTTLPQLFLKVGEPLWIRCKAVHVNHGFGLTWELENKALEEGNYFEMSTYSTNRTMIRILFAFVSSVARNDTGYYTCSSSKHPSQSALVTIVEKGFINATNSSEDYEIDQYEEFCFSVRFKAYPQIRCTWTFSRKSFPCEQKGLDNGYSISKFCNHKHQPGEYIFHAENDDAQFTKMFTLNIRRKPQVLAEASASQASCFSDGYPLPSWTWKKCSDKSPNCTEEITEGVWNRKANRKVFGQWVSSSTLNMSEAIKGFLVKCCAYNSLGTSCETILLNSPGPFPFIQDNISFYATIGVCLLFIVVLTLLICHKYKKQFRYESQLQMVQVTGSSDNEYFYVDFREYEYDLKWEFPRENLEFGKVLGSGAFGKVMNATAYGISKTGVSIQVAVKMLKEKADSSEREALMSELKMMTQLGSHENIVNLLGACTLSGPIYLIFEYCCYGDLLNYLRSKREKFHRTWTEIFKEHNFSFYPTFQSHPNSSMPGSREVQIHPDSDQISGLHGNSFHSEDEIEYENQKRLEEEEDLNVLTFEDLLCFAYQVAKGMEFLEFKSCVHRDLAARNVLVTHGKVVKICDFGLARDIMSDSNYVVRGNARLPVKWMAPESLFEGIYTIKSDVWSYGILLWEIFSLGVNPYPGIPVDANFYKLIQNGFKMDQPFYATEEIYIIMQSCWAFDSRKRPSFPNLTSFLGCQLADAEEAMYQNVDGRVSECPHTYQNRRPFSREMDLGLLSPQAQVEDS

HT-29 [21] = assay: Antiproliferative activity against human HT-29 cells assessed as increase in dead cell population by IncuCyte live-cell imaging analysis; type: functional, cell-based
HT-29 [22] = assay: Antiproliferative activity against human HT-29 cells assessed as increase in dead cell population at 10 ug/ml measured after 66 hrs by IncuCyte live-cell imaging analysis; type: functional, cell-based
HT-29 [23] = assay: Antiproliferative activity against human HT-29 cells assessed as reduction in cell proliferation at 0.37 ug/ml after 72 hrs by phase contrast microscopy; type: functional, cell-based

Structure (SMILES) | IC50 (HT-29 [1]) [µM] | IC50 (A549) [µM] | further results
COc1cc2c(Oc3ccc(C4SCC(=O)N4NC(=O)Nc4ccc(Cl)cc4)cc3)ccnc2cc1OCCCN1CCOCC1 (stereo unspecified) | 6.6 | 6.7 | 
COc1cc2c(Oc3ccc(C4SCC(=O)N4NC(=O)Nc4cccc(Cl)c4)cc3)ccnc2cc1OCCCN1CCOCC1 (stereo unspecified) | 7.7 | 8.9 | 
COc1cc2c(Oc3ccc(C4SCC(=O)N4NC(=O)Nc4ccccc4Cl)cc3)ccnc2cc1OCCCN1CCOCC1 (stereo unspecified) | 6.5 | 8.5 | 
COc1cc2c(Oc3ccc(C4SCC(=O)N4NC(=O)Nc4ccc(F)cc4F)cc3F)ccnc2cc1OCCCN1CCN(C)CC1 (stereo unspecified) | 0.11 | 0.65 | IC50 [2]: 0.0187 µM; Activity (HT-29 [3]): Active; Activity (HT-29 [4]): 56.6%; IC50 [5]: 0.4 µM; Ratio (HT-29 [6]): >10; Activity (HT-29 [7]): Dose-dependent effect; Activity (HT-29 [8]): Active; IC50 [9]: 6.66 µM; Activity (HT-29 [10]): Active; Activity (HT-29 [11]): Dose-dependent effect; IC50 [12]: 0.352 µM; Activity (HT-29 [13]): 62%; IC50 [14]: 0.383 µM; Activity (HT-29 [15]): Dose-dependent effect; Activity (HT-29 [16]): Active; Activity (HT-29 [17]): 65.5%; Activity (HT-29 [18]): Active; Activity (HT-29 [19]): 69.4%; IC50 [20]: 0.0086 µM; Activity (HT-29 [21]): Dose-dependent effect
COc1cc2c(Oc3ccc(C4SCC(=O)N4NC(=O)Nc4ccc(F)cc4F)cc3F)ccnc2cc1OCCCN1CCOCC1 (stereo unspecified) | 0.86 | 2.1 | 
COc1cc2c(Oc3ccc(C4SCC(=O)N4NC(=O)Nc4ccc(F)cc4)cc3)ccnc2cc1OCCCN1CCOCC1 (stereo unspecified) | 4.8 | 4.9 | 
COc1cc2nccc(Oc3ccc(NC(=O)C4(C(=O)Nc5ccc(F)cc5)CC4)cc3)c2cc1OC [CABOZANTINIB] |  | 8.5 | Activity (HT-29 [3]): Active; Activity (HT-29 [22]): Active; Activity (HT-29 [16]): Active; Activity (HT-29 [23]): Active
COc1cc2c(Oc3ccc(C4SCC(=O)N4NC(=O)Nc4ccc(F)cc4F)cc3F)ccnc2cc1OCCCN1CCCN(C)CC1 (stereo unspecified) | 0.18 | 0.71 | 
COc1cc2c(Oc3ccc(C4SCC(=O)N4NC(=O)Nc4ccc(F)c(F)c4F)cc3)ccnc2cc1OCCCN1CCOCC1 (stereo unspecified) | 4.4 | 5.5 | 
COc1cc2c(Oc3ccc(C4SCC(=O)N4NC(=O)Nc4ccc(F)cc4F)cc3)ccnc2cc1OCCCN1CCOCC1 (stereo unspecified) | 2.3 | 6 | 
COc1cc2c(Oc3ccc(C4SCC(=O)N4NC(=O)Nc4ccc(F)cc4F)c(F)c3)ccnc2cc1OCCCN1CCOCC1 (stereo unspecified) | 1.3 | 4.6 | 
COc1cc2c(Oc3ccc(C4SCC(=O)N4NC(=O)Nc4ccccc4F)cc3)ccnc2cc1OCCCN1CCOCC1 (stereo unspecified) |  | 7 | 
COc1cc2c(Oc3ccc(C4SCC(=O)N4NC(=O)Nc4ccc(F)cc4F)cc3Cl)ccnc2cc1OCCCN1CCOCC1 (stereo unspecified) | 2.4 | 6.7 | 
COc1cc2c(Oc3ccc(C4SCC(=O)N4NC(=O)Nc4cc(F)cc(F)c4)cc3)ccnc2cc1OCCCN1CCOCC1 (stereo unspecified) | 4.9 | 6.1 | 
CCN1CCN(CCCOc2cc3nccc(Oc4ccc(C5SCC(=O)N5NC(=O)Nc5ccc(F)cc5F)cc4F)c3cc2OC)CC1 (stereo unspecified) | 0.32 | 1 | 
COc1cc2c(Oc3ccc(C4SCC(=O)N4NC(=O)Nc4ccccc4)cc3)ccnc2cc1OCCCN1CCOCC1 (stereo unspecified) | 5.2 | 8.7 | 
COc1cc2c(Oc3ccc(C4SCC(=O)N4NC(=O)Nc4ccc(F)cc4F)c(Cl)c3)ccnc2cc1OCCCN1CCOCC1 (stereo unspecified) | 2.8 | 6.1 | 
